This passage reports Ki and IC50 results from ChEMBL document CHEMBL1641502, “The identification of substituted benzothiophene derivatives as PGE(2) subtype 4 receptor antagonists: From acid to non-acid” (Bioorg Med Chem Lett, 2011).

pIC50, pKi: −log10 of the molar value. Bounds are passed on as bounds.

Assay [1] deals with T1, Prostaglandin E2 receptor EP4 subtype (Homo sapiens, UniProt P35408). Nature of the assay: Binding affinity to EP4 receptor.
The target in assay [2] is T1, Prostaglandin E2 receptor EP4 subtype. Nature of the assay: Binding affinity to EP4 receptor in presence of 10% HSA.
Assay [3] has the same target. Nature of the assay: Antagonist activity at human EP4 receptor in HEK293 cells by cell-based functional assay.
In assay [4] the target is T2, Prostaglandin E2 receptor EP3 subtype (Homo sapiens, UniProt P43115).
T2 sequence (P43115 whole entry): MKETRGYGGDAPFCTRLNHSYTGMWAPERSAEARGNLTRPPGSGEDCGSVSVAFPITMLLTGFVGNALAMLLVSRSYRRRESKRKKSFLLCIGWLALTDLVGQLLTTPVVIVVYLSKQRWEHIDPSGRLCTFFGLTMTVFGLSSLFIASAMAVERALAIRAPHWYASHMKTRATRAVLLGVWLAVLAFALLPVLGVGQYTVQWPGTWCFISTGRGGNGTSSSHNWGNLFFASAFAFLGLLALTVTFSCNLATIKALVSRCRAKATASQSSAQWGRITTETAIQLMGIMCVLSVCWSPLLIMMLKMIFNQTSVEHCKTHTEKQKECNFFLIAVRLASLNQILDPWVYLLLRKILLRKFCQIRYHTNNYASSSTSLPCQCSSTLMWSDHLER
Nature of the assay: Binding affinity to EP3 receptor.

A further assay concerns the target Prostacyclin receptor (Homo sapiens, UniProt P43119). Nature of the assay: Binding affinity to IP receptor.
Assay [5] concerns the target T3, Prostaglandin E2 receptor EP1 subtype (Homo sapiens, UniProt P34995).
T3 sequence (P34995 whole entry): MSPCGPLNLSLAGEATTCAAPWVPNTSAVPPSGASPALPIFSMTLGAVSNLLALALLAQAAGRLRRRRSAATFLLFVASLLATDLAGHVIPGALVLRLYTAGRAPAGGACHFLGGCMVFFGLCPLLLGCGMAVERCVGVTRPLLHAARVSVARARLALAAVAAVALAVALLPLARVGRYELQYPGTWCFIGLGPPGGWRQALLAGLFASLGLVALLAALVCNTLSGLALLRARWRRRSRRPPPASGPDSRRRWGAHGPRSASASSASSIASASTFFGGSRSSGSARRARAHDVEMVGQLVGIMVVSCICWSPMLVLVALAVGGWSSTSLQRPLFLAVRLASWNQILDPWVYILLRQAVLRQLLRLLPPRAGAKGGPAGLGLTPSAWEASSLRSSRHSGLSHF
Nature of the assay: Binding affinity to EP1 receptor.

Assay [6] addresses Prostaglandin E2 receptor EP2 subtype (Homo sapiens, UniProt P43116). Nature of the assay: Binding affinity to EP2 receptor.
The nature of assay [7]: Binding affinity to DP receptor.
Assay [8] concerns the target T4, Prostaglandin D2 receptor 2 (Homo sapiens, UniProt Q9Y5Y4).
T4 sequence (Q9Y5Y4 whole entry): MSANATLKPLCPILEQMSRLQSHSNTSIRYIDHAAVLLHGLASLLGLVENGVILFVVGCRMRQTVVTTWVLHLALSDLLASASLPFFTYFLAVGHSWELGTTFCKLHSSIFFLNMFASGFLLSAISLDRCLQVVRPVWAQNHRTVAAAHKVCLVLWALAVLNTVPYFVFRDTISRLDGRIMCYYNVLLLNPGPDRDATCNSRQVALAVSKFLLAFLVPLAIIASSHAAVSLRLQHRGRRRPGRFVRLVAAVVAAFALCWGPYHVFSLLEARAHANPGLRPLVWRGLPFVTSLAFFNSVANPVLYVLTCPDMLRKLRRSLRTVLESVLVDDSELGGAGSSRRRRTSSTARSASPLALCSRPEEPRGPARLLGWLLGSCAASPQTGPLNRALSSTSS
Nature of the assay: Binding affinity to CRTH2 receptor.

The target in a further assay is T5, Thromboxane A2 receptor (Homo sapiens, UniProt P21731).
T5 sequence (P21731 whole entry): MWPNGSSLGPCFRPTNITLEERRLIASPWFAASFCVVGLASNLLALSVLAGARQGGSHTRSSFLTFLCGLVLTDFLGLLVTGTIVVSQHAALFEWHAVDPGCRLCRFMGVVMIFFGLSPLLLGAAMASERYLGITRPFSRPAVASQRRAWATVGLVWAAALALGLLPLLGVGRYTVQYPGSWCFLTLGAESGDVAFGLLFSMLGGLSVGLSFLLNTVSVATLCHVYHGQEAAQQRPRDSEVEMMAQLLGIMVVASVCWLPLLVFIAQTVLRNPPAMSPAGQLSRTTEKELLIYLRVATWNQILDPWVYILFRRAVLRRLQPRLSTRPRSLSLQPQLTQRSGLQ
Nature of the assay: Binding affinity to TP receptor.

For assay [9], the target named is Prostaglandin F2-alpha receptor (Homo sapiens, UniProt P43088). Nature of the assay: Binding affinity to FP receptor.
Prostaglandin F2-alpha receptor, sequence (P43088 whole entry): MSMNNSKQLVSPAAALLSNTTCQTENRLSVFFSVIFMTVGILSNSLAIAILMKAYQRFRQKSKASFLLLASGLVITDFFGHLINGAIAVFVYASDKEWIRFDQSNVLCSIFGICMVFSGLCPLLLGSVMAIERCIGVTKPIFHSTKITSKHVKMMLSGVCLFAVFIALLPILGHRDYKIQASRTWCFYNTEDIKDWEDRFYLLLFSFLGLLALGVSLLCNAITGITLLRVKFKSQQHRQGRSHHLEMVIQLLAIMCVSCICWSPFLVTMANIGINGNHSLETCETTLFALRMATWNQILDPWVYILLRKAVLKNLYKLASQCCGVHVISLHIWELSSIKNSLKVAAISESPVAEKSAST

T1 sequence (P35408 whole entry): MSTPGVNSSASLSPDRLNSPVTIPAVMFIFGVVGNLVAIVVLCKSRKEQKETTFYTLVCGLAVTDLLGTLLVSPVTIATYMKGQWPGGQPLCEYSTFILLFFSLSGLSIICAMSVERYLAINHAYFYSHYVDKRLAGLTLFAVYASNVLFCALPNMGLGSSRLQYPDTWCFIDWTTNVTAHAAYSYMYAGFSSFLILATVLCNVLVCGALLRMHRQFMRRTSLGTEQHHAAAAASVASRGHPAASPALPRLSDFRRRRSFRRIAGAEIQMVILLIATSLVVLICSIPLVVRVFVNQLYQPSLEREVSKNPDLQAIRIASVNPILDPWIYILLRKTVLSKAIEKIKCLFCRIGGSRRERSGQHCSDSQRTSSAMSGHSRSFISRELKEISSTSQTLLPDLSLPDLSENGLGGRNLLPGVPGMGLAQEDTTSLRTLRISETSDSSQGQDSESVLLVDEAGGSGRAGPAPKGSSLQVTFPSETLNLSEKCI
Prostacyclin receptor, sequence (P43119 whole entry): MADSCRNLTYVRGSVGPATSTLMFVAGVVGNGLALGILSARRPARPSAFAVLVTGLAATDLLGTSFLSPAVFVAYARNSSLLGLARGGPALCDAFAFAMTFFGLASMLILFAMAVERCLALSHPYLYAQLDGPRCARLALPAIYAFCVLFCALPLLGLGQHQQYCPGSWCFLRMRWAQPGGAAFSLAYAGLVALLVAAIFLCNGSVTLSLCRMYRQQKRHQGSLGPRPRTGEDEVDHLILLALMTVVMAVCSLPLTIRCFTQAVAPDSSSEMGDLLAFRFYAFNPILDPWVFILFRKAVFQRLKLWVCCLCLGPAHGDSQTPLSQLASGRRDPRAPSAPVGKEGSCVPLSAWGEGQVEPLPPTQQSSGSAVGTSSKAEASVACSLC
Prostaglandin E2 receptor EP2 subtype, sequence (P43116 whole entry): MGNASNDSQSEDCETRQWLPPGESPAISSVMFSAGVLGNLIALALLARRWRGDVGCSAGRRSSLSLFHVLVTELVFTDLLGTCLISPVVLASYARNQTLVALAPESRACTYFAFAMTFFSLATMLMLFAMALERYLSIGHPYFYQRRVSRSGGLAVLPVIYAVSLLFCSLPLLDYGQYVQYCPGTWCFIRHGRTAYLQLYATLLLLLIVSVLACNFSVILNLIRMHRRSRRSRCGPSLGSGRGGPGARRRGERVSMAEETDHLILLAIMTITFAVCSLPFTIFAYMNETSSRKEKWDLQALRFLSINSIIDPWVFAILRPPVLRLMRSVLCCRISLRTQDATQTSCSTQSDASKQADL

Turning to `Cc1cc(C)c2sc(C(=O)N(C)C)c(-c3ccc(CCNC(=O)Cc4ccccn4)cc3)c2c1`, the pKi was 8.64 in assay [1] and 7.40 in assay [2].

For `CNC(=O)c1sc2c(C)cc(C)cc2c1-c1ccc(CCNC(=O)NS(=O)(=O)c2ccc(C)cc2)cc1`, the pKi in [1] was 9.30; in [2] it was 6.87.

With `Cc1ccc(S(=O)(=O)NC(=O)NCCc2ccc(-c3c(C(=O)N(C)C)sc4c(Cl)cc(Cl)cc34)cc2)cc1`, the pKi in [1] was 9.23; in assay [2], 7.77.

Consider `Cc1cc(C)c2sc(C(=O)N(C)C)c(-c3ccc(CCNC(=O)NS(=O)(=O)c4ccc(Cl)cc4)cc3)c2c1`, for which the figures for the pKi in assay [1] and in [2] were 9.40 and 8.66, respectively.

As to `Cc1ccc(S(=O)(=O)NC(=O)NCCc2ccc(-c3c(C(=O)N(C)C)sc4c(Cl)cc(C(F)(F)F)cc34)cc2)cc1`, the values for the pKi in assay [1] and in [2] were 9.26 and 8.06, respectively.

As to `Cc1cc(C)c2sc(C(=O)N(C)C)c(-c3ccc(CCNC(=O)OC(C)(C)C)cc3)c2c1`, the pKi is 7.17 in assay [1] and 5.70 in assay [2].

Turning to `COc1ccccc1C1(C(=O)NCCc2ccc(-c3c(C(=O)N(C)C)sc4c(C)cc(C)cc34)cc2)CC1`, the pKi in assay [1] was 8.52; in [2] it was 7.77.

With `Cc1ccc(S(=O)(=O)NC(=O)NCCc2ccc(-c3c(C(=O)N(C)C)sc4c(C)ccc(C)c34)cc2)cc1`, the pKi is 9.11 in [1] and 7.72 in assay [2].

In the case of `Cc1cc(C)c2sc(C(=O)N(C)C)c(-c3ccc(-c4nn[nH]n4)cc3)c2c1`, the results for the pKi in assay [1] and in assay [2] were 6.80 and 5.64, respectively.

With `COc1ccccc1CC(=O)NCCc1ccc(-c2c(C(=O)N(C)C)sc3c(C)cc(C)cc23)cc1`, the pIC50 in assay [3] was 8.62. Further, the figures for the pKi in assay [1] and in [2] were 9.70 and 8.47, respectively.

Compound `Cc1ccc(S(=O)(=O)NC(=O)NCCc2ccc(-c3c(C(=O)N(C)C)sc4c(C)cc(C)cc34)cc2)cc1` showed a pIC50 in [3] of 8.92. The pKi is 6.28 in [4]; < 5.11 at Prostacyclin receptor; 9.27 in [1]; < 5.02 in assay [5]; 8.85 in [2]; 5.48 in assay [6]. The pKi is 7.14 in [7], < 5.14 in assay [8], 7.21 at Thromboxane A2 receptor and < 5.06 in assay [9].

For `Cc1ccc(S(=O)(=O)NC(=O)NCCc2ccc(-c3c(C(=O)N(C)C)sc4c(F)cc(F)cc34)cc2)cc1`, the negative-log Ki (pKi) in assay [1] is 9.28; in [2], 7.40.

As to `Cc1ccc(S(=O)(=O)NC(=O)NCCc2ccc(-c3c(C(=O)N4CCCC4)sc4c(C)cc(C)cc34)cc2)cc1`, the pKi in assay [1] was 9.39; in [2] it was 7.96.

Regarding `Cc1cc(C)c2sc(C(=O)N(C)C)c(-c3ccc(CCNc4ncccn4)cc3)c2c1`, the pKi was 9.01 in assay [1] and 7.38 in [2].

Take `Cc1ccc(S(=O)(=O)NC(=O)NCCc2ccc(-c3c(C(N)=O)sc4c(C)cc(C)cc34)cc2)cc1`: the values for the pKi in assay [1] and in [2] were 8.42 and 6.19, respectively.

Turning to `Cc1cc(C)c2sc(C(=O)N(C)C)c(-c3ccc(CCNC(=O)NS(=O)(=O)c4ccccc4Cl)cc3)c2c1`, the pKi was 9.38 in [1] and 8.57 in assay [2].

For `Cc1cc(C)c2sc(C(=O)N(C)C)c(-c3ccc(CCNC(=O)Cc4c(Cl)cccc4Cl)cc3)c2c1`, the pKi in assay [1] is 8.80; in assay [2], 7.77.

As for `COC(=O)c1sc2c(C)cc(C)cc2c1-c1ccc(CCNC(=O)NS(=O)(=O)c2ccc(C)cc2)cc1`, the pKi in assay [1] is 9.01; in assay [2], 7.41.

As usually defined, the pKi is the negative decadic logarithm of the Ki, by convention in mol/L. One may read the pIC50 as −log10 of the IC50, conventionally taken in molar units. Higher therefore signals a small IC50.
